Measured values from US20250018019A1, “TREATMENT OF INTERFERON DRIVEN INFLAMMATION” (The Provost, Fellows, Foundation Scholars and the other …, priority 2023, published 2025).
Structures can show the parent of a compound that is named as a salt.

Assays:
[1] = system: BMDMs; assay: Seahorse XF Glycolysis Stress Test (ECAR); assay type: cell-based, mouse; details: BMDMs pre-treated 3 h, LPS 4 h
Experimental: All compounds used DMSO as a vehicle except for 4-hydroxy tamoxifen (EtOH), NAC (PBS), and AOAA for tracing experiments (Media). LPS was used at a concentration of 100 ng/ml for indicated timepoints (2, 3, 4, 6, 8, 24, 48 h). FHIN1 (10 or 20 μM), MMF (50 or 100 μM), DMF (25 μM), AOAA (5 mM), oligomycin (10 μM), CCCP (50 μM) NAC (1 mM), and IMT1 (10 μM) pre-treatments were performed for 3 h prior the addition of LPS. Cells were treated with valinomycin (10 nM) 15 mins before LPS stimulation. Anti-CD210 or IgG control (10 μg/ml) antibodies were added to cells 1 h prior to LPS stimulation. Recombinant mouse IL-10 protein (100 ng/ml) was added to cells at the same time as LPS. Cells were treated with IFN-B1 (220 ng/ml) for 3 h. Cells were treated with C-178 (1 μM) 1 h prior to LPS stimulation or transfection with 2′3′-cGAMP (1.5 μg/ml) for 4 hrs to achieve cGAS-STING activation. Cells were treated with ODN 2088 (1 μM) for 1 hr prior to LPS stimulation or transfection with CPG ODN 1826 (1.5 μg/ml) to achieve TLR9 activation. 3 different timepoints of 4-hydroxy tamoxifen (TAM) (600 nM or 2 μM) or EtOH treatment were performed-these are specified in the individual figure legends. For ‘48 h’ treatments EtOH/TAM was added on day 5 of 6 during the BMDM differentiation protocol. On day 6 they were plated with EtOH/TAM (left overnight) and treated the following day. […]

[2] = system: human macrophages; assay: RT-qPCR gene expression in human macrophages; assay type: cell-based; details: LPS-stimulated human macrophages, LPS 4 h
Experimental: PBMCs were taken, and CD14+ monocytes were isolated using MagniSort Human CD14 Positive Selection Kit (Thermo Fisher) according to the manufacturer's protocol. CD14 Monocytes were then differentiated in T-175 flasks in RPMI containing FCS (10%), penicillin/streptomycin (1%) and recombinant human M-CSF (1:1000). After 6 days, the supernatant was discarded, cells were scraped and counted, and human monocyte-derived macrophages (hMDMs) were plated in 12-well plates at 1×10^6 cells/mL RPMI containing FCS (10%) and penicillin/streptomycin (1%).
All compounds used DMSO as a vehicle except for 4-hydroxy tamoxifen (EtOH), NAC (PBS), and AOAA for tracing experiments (Media). […]
RNA extraction from cells was carried out using a Purelink™ RNA kit (Invitrogen) according to the manufacturer's instructions. […] Isolated RNA was quantified using a NanoDrop 2000 spectrophotometer, and RNA concentration was normalised to the lowest concentration across all samples with RNAse-free water. If necessary, samples were DNAse-treated after quantification using DNAse I (Thermo Fisher) according to the manufacturer's instructions. […] Real-time quantitative PCR was performed on the cDNA generated in the previous step, using primers designed in-house and ordered from Eurofins Genomics, as detailed in Table S2. […] Relative expression (2^−ΔΔCT) was calculated from the CT values for each sample and gene of interest.

Row | Structure (SMILES) | glycolysis (ECAR) [1] | IL10 expression [2] | Tnfa expression [2]
1 | COC(=O)/C=C/C(=O)OC [DMF, dimethyl fumarate] | suppressed glycolysis |  | 
2 | CCOC(=O)[C@@]12CCCC=C1N(Cc1ccc(-c3ccccc3)cc1)C(=O)[C@H]2CC(=O)NC [FHIN1, Fumarate hydratase-IN-1] |  | suppressed | increased
